# Molecular target: human activated kallikrein enzyme (Homo sapiens (Human), UniProt P03952)
# Experiment: Inhibition of human activated kallikrein enzyme, fluorogenic peptide substrate assay (two formats)
# Format: biochemical
# Conditions: Table 2; column head prints nM, ranges defined in μM; read-out: pKal EC50
# Procedure: The example compounds were evaluated for inhibition of the human activated kallikrein enzyme in two formats of an assay employing a fluorogenic peptide substrate. In one assay format, the concentrations of reagents were as follows: 20 mM Tris pH 7.5, 1 mM EDTA, 150 mM sodium chloride, 0.1% PEG-400, 0.1% Triton X-100, 500 pM activated kallikrein enzyme, 300 uM Pro-Phe-Arg-7-amido-4-methylcoumarin substrate. Prior to reaction initiation with substrate, enzyme and inhibitors were preincubated for 30 min at room temperature. After initiation with substrate, reactions were incubated for 10 min at room temperature and fluorescence emission at 460 nm from 380 nm excitation measured with a microplate reader. In another assay format, the concentrations of reagents were as follows: 20 mM Tris pH 7.5, 1 mM EDTA, 150 mM sodium chloride, 0.1% PEG-400, 0.1% Triton X-100, 5 pM activated kallikrein enzyme, 300 uM Pro-Phe-Arg-7-amido-4-methylcoumarin substrate. Prior to reaction initiation with substrate, enzyme and inhibitors were preincubated for 30 min at room temperature. After initiation with substrate, reactions were incubated for 18 hr at room temperature and fluorescence emission at 460 nm from 380 nm excitation measured with a microplate reader.
# Sequence of human activated kallikrein enzyme (P03952 391-638): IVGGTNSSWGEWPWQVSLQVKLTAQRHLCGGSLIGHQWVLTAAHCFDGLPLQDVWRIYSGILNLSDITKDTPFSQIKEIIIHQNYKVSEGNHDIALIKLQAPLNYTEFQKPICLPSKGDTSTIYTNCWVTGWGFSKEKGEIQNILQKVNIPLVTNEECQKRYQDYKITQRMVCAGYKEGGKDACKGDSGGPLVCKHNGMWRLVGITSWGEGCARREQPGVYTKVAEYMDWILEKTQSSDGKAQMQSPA
# Sequence of human activated kallikrein enzyme (P03952 20-390 partner): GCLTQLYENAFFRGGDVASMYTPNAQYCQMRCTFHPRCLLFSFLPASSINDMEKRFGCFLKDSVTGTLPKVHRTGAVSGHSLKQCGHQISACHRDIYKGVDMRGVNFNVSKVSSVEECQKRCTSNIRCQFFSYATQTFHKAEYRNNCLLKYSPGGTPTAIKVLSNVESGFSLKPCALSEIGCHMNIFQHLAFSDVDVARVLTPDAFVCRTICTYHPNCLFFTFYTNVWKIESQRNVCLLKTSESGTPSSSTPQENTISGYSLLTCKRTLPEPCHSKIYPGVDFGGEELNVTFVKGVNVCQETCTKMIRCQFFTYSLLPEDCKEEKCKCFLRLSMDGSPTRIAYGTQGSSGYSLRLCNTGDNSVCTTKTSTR
row,EC50 [nM],SMILES
1,5000 to 9900,"CNC(=O)[C@@H](CCCCNC(=N)N)NC(=O)c1csc([C@@H]2C[C@@H](O)CN2C(=O)c2cn3cc(Cl)ccc3n2)n1 [Compound 39, 2-((2S,4R)-1-(6-Chloroimidazo[1,2-a]pyridine-2-carbonyl)-4-hydroxypyrrolidin-2-yl)-N—((R)-6-guanidino-1-(methylamino)-1-oxohexan-2-yl)thiazole-4-carboxamide]"
2,1000 to 5000,"CNC(=O)[C@H](CCCCNC(=N)N)NC(=O)c1csc([C@@H]2C[C@@H](N)CN2C(=O)c2ccc3ccccc3c2)n1 [Compound 40, 2-((2S,4R)-1-(2-naphthoyl)-4-aminopyrrolidin-2-yl)-N—((S)-6-guanidino-1-(methylamino)-1-oxohexan-2-yl)thiazole-4-carboxamide]"
3,100 to 1000,"CNC(=O)[C@H](CCCCNC(=N)N)NC(=O)c1csc([C@@H]2C[C@@H](N)CN2C(=O)c2ccc3ncc(Cl)cc3c2)n1 [Compound 41, 2-((2S,4R)-4-amino-1-(3-chloroquinoline-6-carbonyl)pyrrolidin-2-yl)-N—((S)-6-guanidino-1-(methylamino)-1-oxohexan-2-yl)thiazole-4-carboxamide]"
4,5000 to 9900,"CNC(=O)[C@H](CCCCNC(=N)N)NC(=O)c1csc([C@@H]2C[C@@H](N)CN2C(=O)c2ccc3c(Cl)csc3c2)n1 [Compound 43, 2-((2S,4R)-4-amino-1-(3-chlorobenzo[b]thiophene-6-carbonyl)pyrrolidin-2-yl)-N—((S)-6-guanidino-1-(methylamino)-1-oxohexan-2-yl)thiazole-4-carboxamide]"
5,100 to 1000,"CNC(=O)[C@H](CCCCNC(=N)N)NC(=O)c1csc([C@@H]2C[C@@H](N)CN2C(=O)c2cc3cc(Cl)ccc3s2)n1 [Compound 44, 2-((2S,4R)-4-amino-1-(5-chlorobenzo[b]thiophene-2-carbonyl)pyrrolidin-2-yl)-N—((S)-6-guanidino-1-(methylamino)-1-oxohexan-2-yl)thiazole-4-carboxamide]"
6,≤ 100,"CNC(=O)[C@H](CCCCNC(=N)N)NC(=O)c1csc([C@@H]2C[C@@H](N)CN2C(=O)c2nc3cc(Cl)ccc3s2)n1 [Compound 45, 2-((2S,4R)-4-amino-1-(5-chlorobenzo[d]thiazole-2-carbonyl)pyrrolidin-2-yl)-N—((S)-6-guanidino-1-(methylamino)-1-oxohexan-2-yl)thiazole-4-carboxamide]"
7,100 to 1000,"N=C(N)NCCCCCNC(=O)c1csc([C@@H]2C[C@@H](N)CN2C(=O)c2cn3cc(Cl)ccc3n2)n1 [Compound 46, 2-((2S,4R)-4-amino-1-(6-chloroimidazo[1,2-a]pyridine-2-carbonyl)pyrrolidin-2-yl)-N-(5-guanidinopentyl)thiazole-4-carboxamide]"
8,≤ 100,"N=C(N)c1ccc(CNC(=O)c2csc([C@@H]3C[C@@H](N)CN3C(=O)c3cn4cc(Cl)ccc4n3)n2)cc1 [Compound 47, 2-((2S,4R)-4-amino-1-(6-chloroimidazo[1,2-a]pyridine-2-carbonyl)pyrrolidin-2-yl)-N-(4-carbamimidoylbenzyl)thiazole-4-carboxamide]"
9,100 to 1000,"Cc1cc(N)nc(C)c1CNC(=O)c1csc([C@@H]2C[C@@H](N)CN2C(=O)c2cn3cc(Cl)ccc3n2)n1 [Compound 48, 2-((2S,4R)-4-amino-1-(6-chloroimidazo[1,2-a]pyridine-2-carbonyl)pyrrolidin-2-yl)-N-((6-amino-2,4-dimethylpyridin-3-yl)methyl)thiazole-4-carboxamide]"
10,≤ 100,"Nc1nccc2cc(CNC(=O)c3csc([C@@H]4C[C@@H](N)CN4C(=O)c4cn5cc(Cl)ccc5n4)n3)ccc12 [Compound 49, 2-((2S,4R)-4-amino-1-(6-chloroimidazo[1,2-a]pyridine-2-carbonyl)pyrrolidin-2-yl)-N-((1-aminoisoquinolin-6-yl)methyl)thiazole-4-carboxamide]"
11,5000 to 9900,"NCc1ccc(CNC(=O)c2csc([C@@H]3C[C@@H](N)CN3C(=O)c3cn4cc(Cl)ccc4n3)n2)cc1 [Compound 50, 2-((2S,4R)-4-amino-1-(6-chloroimidazo[1,2-a]pyridine-2-carbonyl)pyrrolidin-2-yl)-N-(4-(aminomethyl)benzyl)thiazole-4-carboxamide]"
12,≤ 100,"N=C(N)c1ccc(CCNC(=O)c2csc([C@@H]3C[C@@H](N)CN3C(=O)c3cn4cc(Cl)ccc4n3)n2)cc1 [Compound 51, 2-((2S,4R)-4-amino-1-(6-chloroimidazo[1,2-a]pyridine-2-carbonyl)pyrrolidin-2-yl)-N-(4-carbamimidoylphenethyl)thiazole-4-carboxamide]"

# More lines, now with the values behind:
row,SMILES,EC50 [nM]
1,"CNC(=O)[C@H](CCCCNC(C)=O)NC(=O)c1csc([C@@H]2C[C@@H](N)CN2C(=O)c2cn3cc(Cl)ccc3n2)n1 [Compound 26, N—((S)-6-acetamido-1-(methylamino)-1-oxohexan-2-yl)-2-((2S,4R)-4-amino-1-(6-chloroimidazo[1,2-a]pyridine-2-carbonyl)pyrrolidin-2-yl)thiazole-4-carboxamide]",> 9900
2,"CNC(=O)[C@H](CCCCNC(N)=O)NC(=O)c1csc([C@@H]2C[C@@H](N)CN2C(=O)c2cn3cc(Cl)ccc3n2)n1 [Compound 27, 2-((2S,4R)-4-amino-1-(6-chloroimidazo[1,2-a]pyridine-2-carbonyl)pyrrolidin-2-yl)-N—((S)-1-(methylamino)-1-oxo-6-ureidohexan-2-yl)thiazole-4-carboxamide]",> 9900
3,"CNC(=O)[C@H](CCCNC(=N)N)NC(=O)c1csc([C@@H]2C[C@@H](N)CN2C(=O)c2cn3cc(Cl)ccc3n2)n1 [Compound 28, 2-((2S,4R)-4-amino-1-(6-chloroimidazo[1,2-a]pyridine-2-carbonyl)pyrrolidin-2-yl)-N—((S)-5-guanidino-1-(methylamino)-1-oxopentan-2-yl)thiazole-4-carboxamide]",5000 to 9900
4,"CNC(=O)[C@H](CCC(N)=O)NC(=O)c1csc([C@@H]2C[C@@H](N)CN2C(=O)c2cn3cc(Cl)ccc3n2)n1 [Compound 29, (S)-2-(2-((2S,4R)-4-amino-1-(6-chloroimidazo[1,2-a]pyridine-2-carbonyl)pyrrolidin-2-yl)thiazole-4-carboxamido)-N1-methylpentanediamide]",> 9900
5,"CNC(=O)[C@H](Cc1c[nH]cn1)NC(=O)c1csc([C@@H]2C[C@@H](N)CN2C(=O)c2cn3cc(Cl)ccc3n2)n1 [Compound 30, N—((S)-3-(1H-imidazol-4-yl)-1-(methylamino)-1-oxopropan-2-yl)-2-((2S,4R)-4-amino-1-(6-chloroimidazo[1,2-a]pyridine-2-carbonyl)pyrrolidin-2-yl)thiazole-4-carboxamide]",> 9900
6,"CNC(=O)[C@H](Cc1c[nH]c2ccccc12)NC(=O)c1csc([C@@H]2C[C@@H](N)CN2C(=O)c2cn3cc(Cl)ccc3n2)n1 [Compound 31, N—((S)-3-(1H-indol-3-yl)-1-(methylamino)-1-oxopropan-2-yl)-2-((2S,4R)-4-amino-1-(6-chloroimidazo[1,2-a]pyridine-2-carbonyl)pyrrolidin-2-yl)thiazole-4-carboxamide]",> 9900
7,"CNC(=O)[C@H](Cc1ccc(O)cc1)NC(=O)c1csc([C@@H]2C[C@@H](N)CN2C(=O)c2cn3cc(Cl)ccc3n2)n1 [Compound 32, 2-((2S,4R)-4-amino-1-(6-chloroimidazo[1,2-a]pyridine-2-carbonyl)pyrrolidin-2-yl)-N—((S)-3-(4-hydroxyphenyl)-1-(methylamino)-1-oxopropan-2-yl)thiazole-4-carboxamide]",> 9900
8,"CNC(=O)[C@@H](CCCCNC(=N)N)NC(=O)c1csc([C@@H]2CCCN2C(=O)c2cn3cc(Cl)ccc3n2)n1 [Compound 34, 2-((S)-1-(6-Chloroimidazo[1,2-a]pyridine-2-carbonyl)pyrrolidin-2-yl)-N—((R)-6-guanidino-1-(methylamino)-1-oxohexan-2-yl)thiazole-4-carboxamide]",> 9900
9,"CNC(=O)[C@H](CCCCNC(=N)N)NC(=O)c1csc([C@@H]2C[C@@H](NC(C)=O)CN2C(=O)c2cn3cc(Cl)ccc3n2)n1 [Compound 35, 2-((2S,4R)-4-acetamido-1-(6-chloroimidazo[1,2-a]pyridine-2-carbonyl)pyrrolidin-2-yl)-N—((S)-6-guanidino-1-(methylamino)-1-oxohexan-2-yl)thiazole-4-carboxamide]",1000 to 5000
10,"CNC(=O)[C@H](CCCCNC(=N)N)NC(=O)c1csc([C@@H]2C[C@H](N)CN2C(=O)c2cn3cc(Cl)ccc3n2)n1 [Compound 36, 2-((2S,4S)-4-amino-1-(6-chloroimidazo[1,2-a]pyridine-2-carbonyl)pyrrolidin-2-yl)-N—((S)-6-guanidino-1-(methylamino)-1-oxohexan-2-yl)thiazole-4-carboxamide]",≤ 100
11,"CNC(=O)[C@H](CCCCNC(=N)N)NC(=O)c1csc([C@@H]2C[C@H](O)CN2C(=O)c2cn3cc(Cl)ccc3n2)n1 [Compound 37, 2-((2S,4S)-1-(6-Chloroimidazo[1,2-a]pyridine-2-carbonyl)-4-hydroxypyrrolidin-2-yl)-N—((S)-6-guanidino-1-(methylamino)-1-oxohexan-2-yl)thiazole-4-carboxamide]",1000 to 5000
12,"CNC(=O)[C@H](CCCCNC(=N)N)NC(=O)c1csc([C@@H]2C[C@@H](O)CN2C(=O)c2cn3cc(Cl)ccc3n2)n1 [Compound 38, 2-((2S,4R)-1-(6-Chloroimidazo[1,2-a]pyridine-2-carbonyl)-4-hydroxypyrrolidin-2-yl)-N—((S)-6-guanidino-1-(methylamino)-1-oxohexan-2-yl)thiazole-4-carboxamide]",> 9900
